In patent US11753407B2, “Compounds for treating spinal muscular atrophy” (PTC Therapeutics, Inc., priority 2012, dated 2023):

Tested on: SMN2 mRNA in tissues of C/C-allele SMA mice
Experiment: SMN2 mRNA RT-qPCR splicing assay in animal tissues
Type: in vivo
Settings: brain and muscle, 10 mg/kg BID oral gavage 10 days, versus vehicle (FIG. 6)
Protocol: The reverse transcription-quantitative PCR-based (RT-qPCR) assay is used to quantify the levels of the full length and Δ7 SMN2 mRNA in tissues from mice treated with test compound.
Protocol. C/C-allele SMA mice are treated by oral gavage two times per day (BID) for 10 days with test compounds re-suspended in 0.5% HPMC and 0.1% Tween-80. Tissue samples were collected and snap frozen for RNA purification.
Tissue samples (20-40 mg) are homogenized in QIAzol Lysis Reagent for 2 minutes at 20 Hz in the TissueLyser II using one stainless steel bead. After addition of chloroform, the homogenate is separated into aqueous and organic phases by centrifugation. RNA partitioned to the upper, aqueous phase is extracted and ethanol is added to provide appropriate binding conditions. The sample is then applied to the RNeasy spin column from the RNeasy Mini Kit, where total RNA binds to the membrane. The RNA is eluted in RNase-free water then stored at −20° C. and subsequently analyzed using the TaqMan RT-qPCR on the 7900HT Thermocycler. Total RNA is diluted ten fold and 2.5 μL of the diluted sample is added to the TaqMan RT-qPCR mixture.
SMN2 spliced products are identified using the following primers and probe in Table 7. Primer SMN FL Forward B (SEQ ID NO. 7) hybridizes to a nucleotide sequence in exons 7 and 8, primer SMN Δ7 Forward B (SEQ ID NO. 8) hybridizes to a nucleotide sequence in exons 6 and 8, primer SMN Reverse B (SEQ ID NO. 9) hybridizes to a nucleotide sequence in exon 8, probe SMN Probe B (SEQ ID NO. 10) hybridizes to a nucleotide sequence in exon 8. These primers and probe hybridize to nucleotide sequences common to human SMN1 and SMN2 mRNA. Since the SMA patient cells used in Example 5 contain only the SMN2 gene, RT-qPCR can quantify only SMN2 full-length and Δ7 mRNA.
The SMN forward and reverse primers are used at final concentrations of 0.4 μM. The SMN probe is used at a final concentration of 0.15 μM. The SMN-GAPDH Mix (10 μL total volume) is prepared by combining 5 μL of 2× RT-PCR buffer, 0.4 μL of 25× RT-PCR enzyme mix, 0.5 μL of 20× GAPDH primer-probe mix, 1.505 μL of water, 2.5 μL of RNA solution, 0.04 μL of 100 μM forward primer, 0.04 μL of 100 μM reverse primer, and 0.015 μL of 100 μM SMN probe. […]
The increase of SMN2 FL and decrease in SMN2 Δ7 mRNA relative to those in tissues from animals treated with vehicle control are determined from real-time PCR data using a modified ΔΔCt method (as described in Livak and Schmittgen, Methods, 2001, 25:402-8). The amplification efficiency (E) is calculated from the slope of the amplification curve for SMN2 FL, SMN2 Δ7, and GAPDH individually. The abundances of SMN2 FL, SMN2 Δ7, and GAPDH are then calculated as (1+E)^−Ct, where Ct is the threshold value for each amplicon. […]

| SMILES | SMN2 FL mRNA | SMN2 Δ7 mRNA |
| --- | --- | --- |
| COc1ccc(-c2cc(=O)n3cc(N4CCNCC4)ccc3n2)cc1OC [Cpd 6, 2-(3,4-dimethoxyphenyl)-7-(piperazin-1-yl)-4H-pyrido[1,2-a]pyrimidin-4-one] | substantially more SMN2 FL mRNA | less SMN2 Δ7 mRNA |
| Cc1cn2nc(-c3cc(=O)n4cc(N5CCN(C)CC5)ccc4n3)cc2c(C)n1 [Cpd 170, 2-(4,6-dimethylpyrazolo[1,5-a]pyrazin-2-yl)-7-(4-methylpiperazin-1-yl)-4H-pyrido[1,2-a]pyrimidin-4-one] | substantially more SMN2 FL mRNA | less SMN2 Δ7 mRNA |
